# Calls of active or inactive are those of the source.
# What was measured:
# Cytochrome P450 2D6 = Cytochrome P450 2D6 (Homo sapiens, UniProt P10635);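 also: CYP2D6 member of a cytochrome P450 panel assay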
# Cytochrome P450 2C9 = Cytochrome P450 2C9 (Homo sapiens, UniProt P11712)
# [1] = HEp-2 cell cytotoxicity, dose response, cytotoxicity control for RSV inhibitor project, HTS (AID 2410); format: functional; conditions: human respiratory syncytial virus
# [2] = target: T1, Rac GTPase-activating protein 1 (Homo sapiens, UniProt Q9H0H5); test: MgcRacGAP GTPase-activating activity inhibitors, confirmation, biochemical, ADP Hunter fluorescence, primary and confirmatory (AID 624330); format: functional
# T1 sequence (Q9H0H5 whole entry): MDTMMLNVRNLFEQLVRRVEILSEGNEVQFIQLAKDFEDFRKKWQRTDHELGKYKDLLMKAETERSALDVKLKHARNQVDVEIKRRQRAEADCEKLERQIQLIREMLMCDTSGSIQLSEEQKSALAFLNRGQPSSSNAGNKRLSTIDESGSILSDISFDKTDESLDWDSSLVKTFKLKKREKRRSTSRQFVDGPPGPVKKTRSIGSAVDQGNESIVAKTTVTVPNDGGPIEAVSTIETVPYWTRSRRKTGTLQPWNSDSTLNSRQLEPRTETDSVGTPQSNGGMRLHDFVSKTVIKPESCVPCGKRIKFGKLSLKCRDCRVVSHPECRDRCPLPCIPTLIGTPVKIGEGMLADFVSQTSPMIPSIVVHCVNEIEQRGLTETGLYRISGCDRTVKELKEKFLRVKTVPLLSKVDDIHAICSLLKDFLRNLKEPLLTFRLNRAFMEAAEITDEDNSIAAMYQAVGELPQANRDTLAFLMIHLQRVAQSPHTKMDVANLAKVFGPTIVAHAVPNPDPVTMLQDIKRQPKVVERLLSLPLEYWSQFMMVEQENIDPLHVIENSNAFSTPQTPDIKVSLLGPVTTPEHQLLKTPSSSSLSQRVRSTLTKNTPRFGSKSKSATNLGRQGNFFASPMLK
# Streptokinase A = target: T2, Streptokinase A (Streptococcus pyogenes serotype M1, UniProt P10520); test: S. pyogenes streptokinase expression inhibitors, potency, dose response, plasminogen activation absorbance, OD405 (AID 1914); format: functional, Streptococcus pyogenes M1 GAS;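 also: secreted streptokinase activity via plasminogen activation per viability signal from cell pellet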
# T2 sequence (P10520 whole entry): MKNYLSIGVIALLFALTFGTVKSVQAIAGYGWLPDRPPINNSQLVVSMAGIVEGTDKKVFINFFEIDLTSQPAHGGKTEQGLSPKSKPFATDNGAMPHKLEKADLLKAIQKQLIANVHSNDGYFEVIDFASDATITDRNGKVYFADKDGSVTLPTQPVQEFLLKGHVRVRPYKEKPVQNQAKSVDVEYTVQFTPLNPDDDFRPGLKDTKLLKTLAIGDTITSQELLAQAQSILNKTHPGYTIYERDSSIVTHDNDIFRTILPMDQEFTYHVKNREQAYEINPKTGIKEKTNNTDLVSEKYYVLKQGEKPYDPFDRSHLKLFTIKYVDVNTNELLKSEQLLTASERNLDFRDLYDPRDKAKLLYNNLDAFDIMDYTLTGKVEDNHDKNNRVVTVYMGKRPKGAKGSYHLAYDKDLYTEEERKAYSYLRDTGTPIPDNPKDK
# [3] = test system: Streptococcus sp. 'group A'; test: growth inhibition of control SK(-) GAS strain, dose response, counter-screen for streptokinase expression inhibitor project, luminescence, kanamycin, BacTiterGlo, confirmation (AID 1900); format: functional, organism-based
# Streptococcus = test: Group A Streptococcus viability loss, dose response, counter-screen for streptokinase expression inhibitor project, luminescence, BacTiterGlo (AID 1915); format: functional, organism-based;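 also: potency for reduction of bacterial viability or growth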
# [4] = inhibitors of intracellular T. cruzi replication, confirmation, NIH3T3 host cells, beta-gal luminescence (AID 2044); format: functional, cell-based;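 also: intracellular parasites grown in NIH/3T3 mouse fibroblasts as host cells; luminescent beta-galactosidase reporter signal from transgenic T. cruzi replicating inside host cells; inhibitors lower the luminescence signal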
# [5] = cytotoxicity toward NIH3T3 fibroblasts, dose response, counter-screen, cell-based, ATP luminescence, mouse fibroblasts (AID 2010); format: functional;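 also: cells exposed to compound for about 90 hours before reading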
# Cytochrome P450 3A4 = Cytochrome P450 3A4 (Homo sapiens, UniProt P08684);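 also: CYP3A4 tested as one member of a cytochrome P450 panel screen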
# Cytochrome P450 3A4, sequence (P08684 whole entry): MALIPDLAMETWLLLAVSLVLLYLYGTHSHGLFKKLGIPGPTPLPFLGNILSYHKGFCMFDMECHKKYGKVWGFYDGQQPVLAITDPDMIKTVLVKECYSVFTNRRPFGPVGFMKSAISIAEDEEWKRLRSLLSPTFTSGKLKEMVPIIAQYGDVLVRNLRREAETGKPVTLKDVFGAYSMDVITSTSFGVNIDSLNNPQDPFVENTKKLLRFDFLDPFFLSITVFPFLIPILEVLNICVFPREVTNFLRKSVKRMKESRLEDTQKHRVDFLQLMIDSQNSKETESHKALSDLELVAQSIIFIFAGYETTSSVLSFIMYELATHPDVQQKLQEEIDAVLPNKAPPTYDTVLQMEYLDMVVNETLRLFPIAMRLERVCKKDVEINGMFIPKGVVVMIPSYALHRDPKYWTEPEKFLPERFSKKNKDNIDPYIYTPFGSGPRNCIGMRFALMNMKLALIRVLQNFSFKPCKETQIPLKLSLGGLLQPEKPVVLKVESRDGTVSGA
# Cytochrome P450 2C19 = Cytochrome P450 2C19 (Homo sapiens, UniProt P33261); test: Cytochrome panel assay with activity outcomes. Panel member name: p450-cyp2c19 Compounds with AC50 equal or less than 10 uM are considered active; format: functional; conditions: read-out: AC50
# Cytochrome P450 2C19, sequence (P33261 whole entry): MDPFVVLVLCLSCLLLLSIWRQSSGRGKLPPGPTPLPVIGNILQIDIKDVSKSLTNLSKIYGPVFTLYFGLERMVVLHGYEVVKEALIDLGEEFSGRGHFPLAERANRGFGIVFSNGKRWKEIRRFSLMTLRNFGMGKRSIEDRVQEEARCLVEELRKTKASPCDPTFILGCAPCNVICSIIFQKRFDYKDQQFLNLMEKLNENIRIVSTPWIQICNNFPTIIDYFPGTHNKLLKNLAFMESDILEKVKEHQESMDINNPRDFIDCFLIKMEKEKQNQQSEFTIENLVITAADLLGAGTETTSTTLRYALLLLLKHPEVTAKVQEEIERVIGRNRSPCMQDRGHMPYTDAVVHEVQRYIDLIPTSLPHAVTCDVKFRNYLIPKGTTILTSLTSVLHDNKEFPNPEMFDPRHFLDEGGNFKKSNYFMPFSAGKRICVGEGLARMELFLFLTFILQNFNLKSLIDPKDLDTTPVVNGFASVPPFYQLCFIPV
# [6] = target: T3, Replicative DNA helicase DnaB (Mycobacterium tuberculosis, UniProt P9WMR3); test: DnaB intein splicing inhibitors, dose response, biochemical, cell-free fluorescence (AID 449749); format: functional
# T3 sequence (P9WMR3 whole entry): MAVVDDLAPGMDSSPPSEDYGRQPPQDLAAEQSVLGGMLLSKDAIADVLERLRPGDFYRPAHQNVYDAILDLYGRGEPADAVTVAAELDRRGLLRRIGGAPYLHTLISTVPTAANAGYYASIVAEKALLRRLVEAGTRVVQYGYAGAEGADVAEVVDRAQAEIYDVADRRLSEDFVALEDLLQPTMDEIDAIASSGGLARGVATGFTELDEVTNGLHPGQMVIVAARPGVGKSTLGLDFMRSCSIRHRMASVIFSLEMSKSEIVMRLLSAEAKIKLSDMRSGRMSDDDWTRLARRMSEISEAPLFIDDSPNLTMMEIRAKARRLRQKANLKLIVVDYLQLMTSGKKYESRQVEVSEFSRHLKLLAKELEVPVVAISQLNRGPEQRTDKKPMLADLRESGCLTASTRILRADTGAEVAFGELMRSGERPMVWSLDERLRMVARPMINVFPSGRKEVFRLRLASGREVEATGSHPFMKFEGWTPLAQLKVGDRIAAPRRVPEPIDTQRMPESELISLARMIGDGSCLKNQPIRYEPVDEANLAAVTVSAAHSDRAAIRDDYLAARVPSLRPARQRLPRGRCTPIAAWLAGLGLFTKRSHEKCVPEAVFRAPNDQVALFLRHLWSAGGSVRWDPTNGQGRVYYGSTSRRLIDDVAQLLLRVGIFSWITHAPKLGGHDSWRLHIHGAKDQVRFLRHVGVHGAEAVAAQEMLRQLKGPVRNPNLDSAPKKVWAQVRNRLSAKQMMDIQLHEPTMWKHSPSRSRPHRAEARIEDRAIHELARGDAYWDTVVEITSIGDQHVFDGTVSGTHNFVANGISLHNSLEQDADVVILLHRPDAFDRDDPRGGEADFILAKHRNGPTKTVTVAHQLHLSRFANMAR
# Protein RecA = target: T4, Protein RecA (Mycobacterium tuberculosis, UniProt P9WHJ3); test: Fluorescence Cell-Free Homogeneous Dose Retest to Identify Inhibitors of RecA-Intein Splicing Activity. [Related pubchem assays (depositor defined):AID2097, AID2223, AID489010, AID492950]; format: functional
# T4 sequence (P9WHJ3 whole entry): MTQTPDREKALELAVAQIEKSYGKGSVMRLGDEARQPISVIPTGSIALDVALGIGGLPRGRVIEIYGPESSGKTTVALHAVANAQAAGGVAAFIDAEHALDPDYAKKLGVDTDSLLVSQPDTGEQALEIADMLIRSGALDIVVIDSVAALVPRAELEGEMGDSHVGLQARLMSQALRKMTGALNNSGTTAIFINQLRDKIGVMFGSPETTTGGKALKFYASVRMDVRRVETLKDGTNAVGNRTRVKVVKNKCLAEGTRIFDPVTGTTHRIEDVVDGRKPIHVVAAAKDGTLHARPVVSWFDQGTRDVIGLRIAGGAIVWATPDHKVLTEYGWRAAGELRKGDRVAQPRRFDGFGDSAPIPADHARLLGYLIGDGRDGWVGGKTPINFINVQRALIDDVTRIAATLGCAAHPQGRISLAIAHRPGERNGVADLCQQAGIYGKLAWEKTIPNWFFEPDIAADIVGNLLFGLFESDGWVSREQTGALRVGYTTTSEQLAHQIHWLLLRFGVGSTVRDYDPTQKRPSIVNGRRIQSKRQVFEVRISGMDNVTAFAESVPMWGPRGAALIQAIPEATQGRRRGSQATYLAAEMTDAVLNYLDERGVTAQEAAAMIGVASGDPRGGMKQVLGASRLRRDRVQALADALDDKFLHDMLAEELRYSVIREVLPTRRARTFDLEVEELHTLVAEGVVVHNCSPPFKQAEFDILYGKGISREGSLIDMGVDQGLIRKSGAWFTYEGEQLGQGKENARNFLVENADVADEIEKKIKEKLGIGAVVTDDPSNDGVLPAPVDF
# Cytochrome P450 2D6, sequence (P10635 whole entry): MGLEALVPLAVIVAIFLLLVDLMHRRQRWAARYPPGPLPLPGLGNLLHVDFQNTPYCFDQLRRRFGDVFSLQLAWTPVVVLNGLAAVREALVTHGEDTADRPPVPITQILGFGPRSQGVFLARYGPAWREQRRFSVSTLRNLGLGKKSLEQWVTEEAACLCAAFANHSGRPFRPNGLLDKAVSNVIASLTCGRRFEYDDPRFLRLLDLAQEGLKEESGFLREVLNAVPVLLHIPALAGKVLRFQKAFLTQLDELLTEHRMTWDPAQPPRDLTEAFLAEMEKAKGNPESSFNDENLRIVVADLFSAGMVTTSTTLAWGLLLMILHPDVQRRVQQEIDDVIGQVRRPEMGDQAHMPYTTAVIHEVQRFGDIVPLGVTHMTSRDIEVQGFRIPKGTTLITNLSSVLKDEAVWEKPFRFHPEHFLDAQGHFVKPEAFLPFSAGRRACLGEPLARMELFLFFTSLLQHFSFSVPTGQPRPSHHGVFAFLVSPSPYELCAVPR
# Cytochrome P450 2C9, sequence (P11712 whole entry): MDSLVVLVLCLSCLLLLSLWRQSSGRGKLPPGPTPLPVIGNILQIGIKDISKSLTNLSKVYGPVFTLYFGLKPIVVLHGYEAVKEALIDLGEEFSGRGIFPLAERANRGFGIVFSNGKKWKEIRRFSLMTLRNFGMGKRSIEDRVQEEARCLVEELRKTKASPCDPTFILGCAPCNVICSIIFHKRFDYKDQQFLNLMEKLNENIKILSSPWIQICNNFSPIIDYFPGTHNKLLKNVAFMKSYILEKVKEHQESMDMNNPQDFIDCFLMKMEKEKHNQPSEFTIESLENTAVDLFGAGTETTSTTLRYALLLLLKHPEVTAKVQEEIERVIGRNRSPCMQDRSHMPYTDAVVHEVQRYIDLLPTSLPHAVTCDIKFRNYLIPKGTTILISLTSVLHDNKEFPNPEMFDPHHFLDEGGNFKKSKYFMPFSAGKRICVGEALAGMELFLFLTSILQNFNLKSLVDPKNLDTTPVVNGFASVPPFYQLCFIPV
compound,measurement,setting,value
Clc1ccccc1-c1nc(Nc2ccncc2)c2ccccc2n1,AC50,Cytochrome P450 2D6,39.8 µM (inconclusive)
same,AC50,Cytochrome P450 2C9,1.58 µM (inconclusive)
CCOC(=O)C1=C(O)c2ccccc2C(=O)/C1=C\c1ccc(C)cc1,CC50,[1],31.5 µM (active)
O=c1c2ccccc2nc(/C=C/c2ccc(O)c(O)c2)n1-c1ccccc1,IC50,[2],73.9 µM (active)
COc1ccccc1NS(=O)(=O)c1cccc(C(=O)OCC(=O)Nc2cc(C)on2)c1,AC50,Cytochrome P450 2D6,31.6 µM (inconclusive)
same,AC50,Cytochrome P450 2C9,12.6 µM (inconclusive)
Cc1ccccc1-c1nccc(Nc2ccc(F)cc2)n1,AC50,Cytochrome P450 2D6,20 µM (inconclusive)
O=C1NC(=Nc2ccccn2)SC1Cc1ccc(Cl)cc1 (stereo not drawn),EC50,Streptokinase A,> 150 µM (not active)
Cc1ccc2nc(Nc3ccc(Cl)cc3)c3nncn3c2c1,CC50,[1],34.4 µM (active)
O=C(c1cc(S(=O)(=O)N2CCOCC2)ccc1F)N(CCc1ccccc1)Cc1ccccc1,CC50,[1],29.8 µM (active)
O=C(Nc1cccc(-c2nnc(-c3ccccc3)o2)c1)c1ccc(Br)o1,EC50,Streptokinase A,> 150 µM (not active)
same,EC50,[3],9.53 µM (active)
same,EC50,Streptococcus,14.2 µM (active)
CN1c2ccccc2C(C)(C)[C@]12C=Cc1cc(O)ccc1O2,CC50,[1],7.32 µM (active)
Brc1ccc(-c2cn3c(n2)CCc2ccc4cccnc4c2-3)cc1,EC50,Streptokinase A,23.8 µM (active)
same,EC50,[3],4.51 µM (active)
same,EC50,Streptococcus,> 150 µM (not active)
CC1=NN(C(=Nc2ccc(C(C)(C)C)cc2)Nc2nnc(C)s2)[C@H](c2ccc(C)cc2)S1,EC50,Streptokinase A,13.9 µM (active)
same,EC50,[3],8.28 µM (active)
same,EC50,[4],1.85 µM (active)
same,EC50,Streptococcus,> 150 µM (not active)
same,EC50,[5],> 60 µM (not active)
COc1ccccc1-c1nc(NCCN2CCOCC2)c2ccccc2n1,AC50,Cytochrome P450 2D6,31.6 µM (inconclusive)
same,AC50,Cytochrome P450 3A4,31.6 µM (inconclusive)
Oc1ccccc1-[n+]1c(-c2ccccc2)cc(-c2ccccc2)cc1-c1ccccc1.[O-][Cl+3]([O-])([O-])[O-],CC50,[1],11.7 µM (active)
COCCn1c(N)c(C(=O)NS(=O)(=O)c2ccc(C)cc2)c(=O)[nH]c1=O,EC50,Streptokinase A,> 150 µM (not active)
same,EC50,[3],> 150 µM (not active)
same,EC50,Streptococcus,> 150 µM (not active)
C[C@@H]1CC[C@@]2(OC1)O[C@H]1C[C@H]3[C@@H]4CC=C5C[C@@H](O)[C@H](O)C[C@]5(C)C4CC[C@]3(C)[C@H]1[C@@H]2C (stereo partly drawn),EC50,Streptokinase A,> 150 µM (not active)
same,EC50,[3],4.77 µM (active)
same,EC50,Streptococcus,16.4 µM (active)
OCCCn1c(C(CO)Nc2nc(-c3ccc(Cl)cc3)cs2)nc2ccccc21 (stereo not drawn),CC50,[1],15.5 µM (active)
COC(=O)CSc1nnc(-c2cnccn2)n1C,EC50,Streptokinase A,> 150 µM (not active)
same,EC50,[3],> 150 µM (not active)
same,EC50,Streptococcus,> 150 µM (not active)
O=C(Cc1cccs1)Nc1cccc(-c2nnc(-c3ccco3)o2)c1,CC50,[1],> 12.5 µM (active)
O=C(Nc1cccc(F)c1)N1CC2(CCN(S(=O)(=O)c3ccccc3)CC2)C1,AC50,Cytochrome P450 2C19,15.8 µM (inconclusive)
same,AC50,Cytochrome P450 2D6,39.8 µM (inconclusive)
same,AC50,Cytochrome P450 2C9,20 µM (inconclusive)
COc1ccc(C2CC(c3ccccc3)=NN2c2ccc(S(N)(=O)=O)cc2)cc1OC (stereo not drawn),CC50,[1],24.2 µM (active)
Cc1cc2oc(=O)cc(CN(C)Cc3ccccc3Cl)c2cc1C,EC50,Streptokinase A,14.4 µM (active)
same,EC50,[3],20.8 µM (active)
same,EC50,Streptococcus,> 150 µM (not active)
Cc1ccc(C2=C(Cl)C(=O)C(c3ccc(C)cc3)=C(Cl)C2=O)cc1,AC50,Cytochrome P450 2C19,3.98 µM (inconclusive)
same,AC50,Cytochrome P450 2D6,3.98 µM (inconclusive)
Cc1ccc2nc(-c3ccc(NS(=O)(=O)c4ccc(F)c(F)c4)cc3)sc2c1,EC50,Streptokinase A,5.1 µM (active)
same,EC50,[3],2.65 µM (active)
same,EC50,Streptococcus,5.92 µM (active)
O=C(CSc1nnc(-c2ccccn2)n1Cc1ccco1)c1ccc(-c2ccccc2)cc1,CC50,[1],34.3 µM (active)
O=C(NC(=S)Nc1ccc(Br)cn1)c1cncc(Br)c1,AC50,Cytochrome P450 2C19,35.5 µM (inconclusive)
same,AC50,Cytochrome P450 2D6,0.631 µM (inconclusive)
same,AC50,Cytochrome P450 2C9,0.447 µM (inconclusive)
CC(=O)NCCn1c(SCC(=O)NCc2ccco2)nc2ccccc2c1=O,AC50,[6],7.22 µM (active)
same,AC50,Cytochrome P450 2D6,0.0447 µM (inconclusive)
same,EC50,Protein RecA,9.17 µM (active)
same,AC50,Cytochrome P450 2C9,25.1 µM (inconclusive)
O=C(Nc1cc(Cl)cc(Cl)c1)Nc1cnccn1,EC50,Streptokinase A,> 150 µM (not active)
same,EC50,[3],7.66 µM (active)
same,EC50,Streptococcus,> 150 µM (not active)
CCC1=NN2C(=N)/C(=C/c3ccc(OS(=O)(=O)c4ccccc4)cc3)C(=O)N=C2S1,CC50,[1],> 50 µM (active)
O=C1CCC(C2CCc3cc(O)ccc3C2)C1 (stereo not drawn),IC50,[2],70.4 µM (active)
COc1cccc(/C=N/NC(=O)c2cc(-c3cccn3C)[nH]n2)c1,AC50,Cytochrome P450 2D6,0.00794 µM (inconclusive)
CN(C)c1ccc(-c2ccc3ncnc(NCc4ccccc4)c3c2)cc1,AC50,Cytochrome P450 2D6,12.6 µM (inconclusive)
